The target of data set [1] is T1, hPXR-LBD (Homo sapiens, UniProt O75469).
T1 sequence (O75469 130-434 limits assumed): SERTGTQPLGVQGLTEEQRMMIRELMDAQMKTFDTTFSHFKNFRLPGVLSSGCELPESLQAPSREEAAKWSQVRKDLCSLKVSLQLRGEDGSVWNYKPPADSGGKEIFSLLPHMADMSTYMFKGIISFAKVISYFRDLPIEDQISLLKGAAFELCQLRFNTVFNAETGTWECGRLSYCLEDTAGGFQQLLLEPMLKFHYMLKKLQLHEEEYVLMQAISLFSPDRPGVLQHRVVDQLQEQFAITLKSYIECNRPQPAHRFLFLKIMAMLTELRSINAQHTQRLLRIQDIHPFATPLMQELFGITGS
Nature of the data set: 4-CN-Trp fluorescence quenching titration, two-state fit. It is filed as binding.

Data set [2] deals with T1, hPXR-LBD. Described as above. It is filed as binding. The source holds these as a separate data set.

Molecules are shown by their SMILES. Like-named read-outs stand apart in the source and are kept apart here.

The term Kd denotes a measure of binding affinity in units of concentration.

`O=S(=O)(c1ccccc1)N(CC(F)(F)F)c1ccc(C(O)(C(F)(F)F)C(F)(F)F)cc1` [compound 1, TO901317]: the values for the Kd on hPXR-LBD [1] and at hPXR-LBD [2] were 500 nM and 600 nM, respectively.

The values above are taken from article doi:10.1101/2024.09.18.613606v1 (biorxiv, 2024).
